According to patent publication US20080045519A1, “Method to Fight Against Insects Including the Use of Hydrocarbon Compounds” (priority 2004, published 2008):
“And” between values parts separate entries of the source, which are not always exact repeats. Equal values may be shown once.

System: worker termites of Reticulitermes santonensis type
Assay: Insecticidal activity of fipronil plus hydrocarbon compound mixture, termite mortality after 3 days (Example 4)
Assay type: in vivo
Conditions: matrix sprayed with hydrocarbon compound mixture (Mixture B), 100 termites
Method: The experiment is conducted in a LAB test box (6 cm×9 cm) containing on the bottom 2 mm of wet Fontainebleau sand and is repeated five times. In the box, a matrix is placed, consisting of a foam cube in which holes are made with a diameter of 5 mm, over which a small piece of poplar wood is placed (1 cm×2 cm×2 cm). The foam is impregnated with cold fipronil. The matrix is sprayed with a hydrocarbon compound mixture including 11.4% of 5-methylpentacosane; 36.3% of 11-methylpentacosane; 19.6% of (Z)-9-pentacosene; 27.7% of n-pentacosane, and 5% of n-hexacosane. Only 4 faces are sprayed. The top and the bottom of the matrix are not treated.
In the box, an untreated piece of poplar wood is also placed in order to recreate a natural situation as exactly as possible.
100 worker termites of Reticulitermes santonensis type are placed in the box and their mortality after 3 days is evaluated. Various concentrations of cold fipronil are tested: 0.5 ppm, 1 ppm, 2 ppm, 5 ppm, and 7 ppm.

N#Cc1nn(-c2c(Cl)cc(C(F)(F)F)cc2Cl)c(N)c1[S+]([O-])C(F)(F)F (stereo not drawn) [Fipronil, fipronil]
Number of termites dead after 3 days (fipronil at 0.5 ppm, average of 5 trials): 0
Number of termites dead after 3 days (fipronil at 0.5 ppm, single trials): 0
Number of termites dead after 3 days (fipronil at 1 ppm, average of 5 trials): 0
Number of termites dead after 3 days (fipronil at 1 ppm, single trials): 0
Number of termites dead after 3 days (fipronil at 2 ppm, average of 5 trials): 20
Number of termites dead after 3 days (fipronil at 5 ppm, average of 5 trials): 50.4
Number of termites dead after 3 days (fipronil at 5 ppm, single trials): 42 and 45 and 59 and 56 and 50
Number of termites dead after 3 days (fipronil at 7 ppm, average of 5 trials): 50.8
Number of termites dead after 3 days (fipronil at 7 ppm, single trials): 60 and 42 and 55 and 34 and 63
